# Test results from patent EP0511381B1, “SQUARYLIUM AND CROCONYLIUM DYES” (POLAROID CORPORATION, priority 1990, dated 1992).
# Counter-ions that a name gives are not always drawn.
# Experiments:
# Assay type in all cases: physicochemical
# [1] = Solubility in dichloromethane (saturated solution); conditions: weight percentage of dye to solvent in a saturated solution
# Excerpt: This Example illustrates the high solubility in halogenated organic solvents which can be achieved by dyes of the present invention, as compared with similar dyes which bear 2-phenyl or -substituted phenyl groups.
# [2] = Storage stability of thermal imaging medium containing the dye; conditions: imaging medium (dye, leuco dye LD3, polyurethane Estane 5715 binder) stored at 60°C for 4 days
# Procedure: A coating fluid was prepared by combining the infra-red dye of Formula IR4 above (prepared in Example 12 above, 2.6 mg) with a leuco dye of Formula LD3 above (110 mg) and a polymeric binder (polyurethane Estane 5715, supplied by B.F. Goodrich, 0.73 mL of a 15% solution in acetone). The fluid was diluted with acetone (0.157 mL), then coated onto a 4 mil (101 »m) transparent poly(ethylene terephthalate) base using a #12 coating rod. The film so formed was laminated at 180°F […] and 60 psi (0.4 MPa) to a second sheet of 4 mil (101 »m) poly(ethylene terephthalate) which had been coated with Joncryl 138 to a thickness of approximately 2 »m.
# [3] = Photochemical stability of dye in polymer films
# Procedure: This Example illustrates the photochemical stability of a dye of the present invention in a polymer matrix.
# 20 mg of Dye B prepared as described in Example 5 above and 100 mg of a test polymer (polyvinylbutyral or polyacrylate) were dissolved in dichloromethane, and the resultant solution was coated onto PET transparent base using a #4 coating rod. The maximum absorbance of the resultant film was measured before and after exposure of the coated side of the base to irradiation with a fluorescent lamp (560 ft. candles) for 24 or 67 hours. The results are shown in Table 2 below (with the absorbance after irradiation in parentheses).
# [4] = Absorption and thermal stability of dye in polymer films; parameters: λmax: unit not given here; conditions: for Width: full width of infra-red absorption peak at half maximum
# Procedure: This Example illustrates the high absorptions which can be achieved by a dye of the present invention when dispersed in a polymer, and the thermal stability of such dispersed polymer.
# The polymers tested in this Example were polystyrene/acrylonitrile, polyvinylbutyral and polyvinylformal polymers. 10.0 mg of the dye (hereinafter referred to as "Dye B") prepared as described in Example 5 above was dissolved in 2.0 mL of a 2.5% w/v solution of each polymer in dichloromethane, and the resultant solution was coated onto a transparent 4 mil polyvinyl chloride base using a No. 10 coating rod. The resultant film was oven dried at 80°C for 10 minutes. After the film had cooled, the wavelength of maximum infra-red absorption (λmax), the absorbance at λmax (Amax), and the full width of the infra-red absorption peak at half maximum were measured. The film samples were then stored in the dark for 15 days at 80°C, and the same absorption parameters were remeasured to give the data shown in Table 1, in which initial values are shown, with values after heating in parentheses.
# [5] = Polyvinylbutyral film, after 15 days at 80°C in the dark
# [6] = Polyvinylbutyral film, initial value
# [7] = Polyvinylformal film, after 15 days at 80°C in the dark
# [8] = Polyvinylformal film, initial value
# [9] = SAN (polystyrene/acrylonitrile) film, after 15 days at 80°C in the dark
# [10] = SAN (polystyrene/acrylonitrile) film, initial value
compound,measurement,setting,value
"CCN(CC)c1ccc2c(c1)OC(c1ccccc1)=CC2=CC1=C([O-])C(=Cc2cc(-c3ccccc3)[o+]c3cc(N(CC)CC)ccc23)C1=O [Control Dye y, reference compound]",Solubility,[1],0.02 wt. %
"CCC(CC)COc1ccc2c(c1)OC(C(C)(C)C)=CC2=CC1=C([O-])C(=Cc2cc(C(C)(C)C)[o+]c3cc(N(CC)CC)ccc23)C1=O [IR4, 4-[[3-[[7-diethylamino-2-[1,1-dimethylethyl]benz[b]-4H-pyran-4-ylidene]methyl]-2-hydroxy-4-oxo-2-cyclobuten-1-ylidene]methyl]-7-[2-ethylbut-1-oxy]-2-[1,1-dimethylethyl]benz[b]pyrylium hydroxide inner salt dye]",loss of near infra-red absorption,[2],2.4%
"CCN(CC)c1ccc2c(c1)OC(C1CCCCC1)=CC2=CC1=C([O-])C(=Cc2cc(C3CCCCC3)[o+]c3cc(N(CC)CC)ccc23)C1=O [Dye F, 4-[[3-[2-cyclohexyl-7-diethylamino-(benz[b]-4H-pyran-4-ylidene)methyl]-2-hydroxy-4-oxo-2-cyclobuten-1-ylidene]methyl]-2-cyclohexyl-7-diethylaminobenz[b]pyrylium hydroxide inner salt dye]",Solubility,[1],0.4 wt. %
"CCN(CC)c1ccc2c(c1)OC(c1ccc(C)cc1C)=CC2=CC1=C([O-])C(=Cc2cc(-c3ccc(C)cc3C)[o+]c3cc(N(CC)CC)ccc23)C1=O [Control Dye z, reference compound]",Solubility,[1],0.1 wt. %
CCN(CC)c1ccc2c(c1)OC(C(C)(C)C)=CC2=CC1=C([O-])C(=Cc2cc(C(C)(C)C)[o+]c3cc(N(CC)CC)ccc23)C1=O [Dye B],Amax,"[3]; Polyacrylate film, after 24 hours irradiation with fluorescent lamp (560 ft. candles)",0.78
same,Amax,"[3]; Polyacrylate film, before irradiation",0.84
same,Amax,"[3]; Polyvinylbutyral film, after 67 hours irradiation with fluorescent lamp (560 ft. candles)",1.018
same,Amax,"[3]; Polyvinylbutyral film, before irradiation",1.225
same,Solubility,[1],11.5 wt. %
same,Amax,[4]; [5],2.16
same,λmax,[4]; [5],812
same,Amax,[4]; [6],2.99
same,λmax,[4]; [6],815
same,Amax,[4]; [7],2.64
same,λmax,[4]; [7],820 (820)
same,Amax,[4]; [8],2.62
same,λmax,[4]; [8],820 (820)
same,Amax,[4]; [9],2.68
same,λmax,[4]; [9],826 (826)
same,Amax,[4]; [10],2.59
same,λmax,[4]; [10],826 (826)
same,Width,[4]; [5],79 nm
same,Width,[4]; [6],70 nm
same,Width,[4]; [7],80 (80) nm
same,Width,[4]; [8],80 (80) nm
same,Width,"[4]; SAN film, after 15 days at 80°C in the dark",74 (74) nm
same,Width,"[4]; SAN film, initial value",74 (74) nm
